Where a name gives a salt, the structure may show the parent alone.
Columns and labels:
human JAK1 = molecular target: T1, human JAK1 (Homo sapiens, UniProt P23458); assay: In Vitro JAK Kinase Assay (HTRF, phosphorylation of a biotinylated peptide), JAK1; format: biochemical; conditions: Table 4; catalytic domain a.a. 837-1142, assay of Example A
T1 construct: human JAK1 (a.a. 837-1142); His tag (N); made in house; host or cells: insect cells (baculovirus)
Experimental: (§1) The catalytic activity of JAK1, JAK2 or JAK3 was assayed by measuring the phosphorylation of a biotinylated peptide. The phosphorylated peptide was detected by homogenous time resolved fluorescence (HTRF). […] Reactions were carried out at room temperature for 1 hour and then stopped with 20 μL 45 mM EDTA, 300 nM SA-APC, 6 nM Eu-Py20 in assay buffer (Perkin Elmer, Boston, Mass.). Binding to the Europium labeled antibody took place for 40 minutes and HTRF signal was measured on a Fusion plate reader (Perkin Elmer, Boston, Mass.).

human JAK2 = molecular target: T2, human JAK2 (Homo sapiens, UniProt O60674); assay: In Vitro JAK Kinase Assay (HTRF, phosphorylation of a biotinylated peptide), JAK2; format: biochemical; conditions: Table 4; assay of Example A
T2 construct: JAK2 (a.a. 828-1132); His tag (N); made in house; host or cells: insect cells (baculovirus)
T2 sequence (O60674 828-1132): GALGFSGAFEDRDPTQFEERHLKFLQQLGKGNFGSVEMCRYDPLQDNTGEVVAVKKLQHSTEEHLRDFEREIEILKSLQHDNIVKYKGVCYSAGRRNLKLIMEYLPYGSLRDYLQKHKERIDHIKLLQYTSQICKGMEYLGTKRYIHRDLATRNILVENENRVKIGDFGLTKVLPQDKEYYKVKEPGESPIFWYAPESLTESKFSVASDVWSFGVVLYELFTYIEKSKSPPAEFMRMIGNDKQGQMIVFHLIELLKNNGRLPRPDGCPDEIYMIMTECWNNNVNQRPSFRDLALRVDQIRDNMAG
Experimental: as §1

T1 sequence (P23458 849-1154): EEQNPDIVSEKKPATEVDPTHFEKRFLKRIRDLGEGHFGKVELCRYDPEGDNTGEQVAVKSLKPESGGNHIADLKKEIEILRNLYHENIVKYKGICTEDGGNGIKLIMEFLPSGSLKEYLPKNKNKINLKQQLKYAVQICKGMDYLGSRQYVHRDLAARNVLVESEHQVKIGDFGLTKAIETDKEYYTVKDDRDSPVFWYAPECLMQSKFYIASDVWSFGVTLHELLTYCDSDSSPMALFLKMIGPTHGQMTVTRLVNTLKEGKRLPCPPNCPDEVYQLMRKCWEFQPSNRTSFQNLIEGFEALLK

Row | Compound | IC50 (human JAK1) [nM] | JAK2/JAK1 IC50 ratio (human JAK2)
1 | CC(C)NCc1cc(O[C@H]2CC[C@@H](N3CC(CC#N)(n4cc(-c5ncnc6[nH]ccc56)cn4)C3)CC2)nc(C(F)(F)F)n1.O=C(O)C(F)(F)F.O=C(O)C(F)(F)F.O=C(O)C(F)(F)F [Example 6, {1-(cis-4-{[6-[(isopropylamino)methyl]-2-(trifluoromethyl)pyrimidin-4-yl]oxy}cyclohexyl)-3-[4-(7H-pyrrolo[2,3-d]pyrimidin-4-yl)-1H-pyrazol-1-yl]azetidin-3-yl}acetonitrile tris(trifluoroacetate)] | < 10 | ≧10
2 | N#CCC1(n2cc(-c3ncnc4[nH]ccc34)cn2)CN([C@H]2CC[C@@H](Oc3cc(CNC4CC4)nc(C(F)(F)F)n3)CC2)C1.O=C(O)C(F)(F)F.O=C(O)C(F)(F)F.O=C(O)C(F)(F)F [Example 7, {1-(cis-4-{[6-[(cyclopropylamino)methyl]-2-(trifluoromethyl)pyrimidin-4-yl]oxy}cyclohexyl)-3-[4-(7H-pyrrolo[2,3-d]pyrimidin-4-yl)-1H-pyrazol-1-yl]azetidin-3-yl}acetonitrile tris(trifluoroacetate)] | < 10 | ≧10
3 | CCN(C)Cc1cc(O[C@H]2CC[C@@H](N3CC(CC#N)(n4cc(-c5ncnc6[nH]ccc56)cn4)C3)CC2)nc(C(F)(F)F)n1.O=C(O)C(F)(F)F.O=C(O)C(F)(F)F.O=C(O)C(F)(F)F [Example 8, {1-(cis-4-{[6-{[ethyl(methyl)amino]methyl}-2-(trifluoromethyl)pyrimidin-4-yl]oxy}cyclohexyl)-3-[4-(7H-pyrrolo[2,3-d]pyrimidin-4-yl)-1H-pyrazol-1-yl]azetidin-3-yl}acetonitrile tris(trifluoroacetate)] | < 10 | ≧10
4 | N#CCC1(n2cc(-c3ncnc4[nH]ccc34)cn2)CN([C@H]2CC[C@@H](Oc3cc(CNCC4CC4)nc(C(F)(F)F)n3)CC2)C1.O=C(O)C(F)(F)F.O=C(O)C(F)(F)F.O=C(O)C(F)(F)F [Example 9, {1-(cis-4-{[6-{[(cyclopropylmethyl)amino]methyl}-2-(trifluoromethyl)pyrimidin-4-yl]oxy}cyclohexyl)-3-[4-(7H-pyrrolo[2,3-d]pyrimidin-4-yl)-1H-pyrazol-1-yl]azetidin-3-yl}acetonitrile tris(trifluoroacetate)] | < 10 | ≧10
5 | N#CCC1(n2cc(-c3ncnc4[nH]ccc34)cn2)CN([C@H]2CC[C@@H](Oc3cc(CNC4CCC4)nc(C(F)(F)F)n3)CC2)C1.O=C(O)C(F)(F)F.O=C(O)C(F)(F)F.O=C(O)C(F)(F)F [Example 10, {1-(cis-4-{[6-[(cyclobutylamino)methyl]-2-(trifluoromethyl)pyrimidin-4-yl]oxy}cyclohexyl)-3-[4-(7H-pyrrolo[2,3-d]pyrimidin-4-yl)-1H-pyrazol-1-yl]azetidin-3-yl}acetonitrile tris(trifluoroacetate)] | < 10 | ≧10
6 | CN(CCO)Cc1cc(O[C@H]2CC[C@@H](N3CC(CC#N)(n4cc(-c5ncnc6[nH]ccc56)cn4)C3)CC2)nc(C(F)(F)F)n1 [Example 12, {1-(cis-4-{[6-{[(2-hydroxyethyl)(methyl)amino]methyl}-2-(trifluoromethyl)pyrimidin-4-yl]oxy}cyclohexyl)-3-[4-(7H-pyrrolo[2,3-d]pyrimidin-4-yl)-1H-pyrazol-1-yl]azetidin-3-yl}acetonitrile tris(trifluoroacetate) (salt)] | < 10 | ≧10
7 | CCN(CCO)Cc1cc(O[C@H]2CC[C@@H](N3CC(CC#N)(n4cc(-c5ncnc6[nH]ccc56)cn4)C3)CC2)nc(C(F)(F)F)n1 [Example 13, {1-(cis-4-{[6-{[ethyl(2-hydroxyethyl)amino]methyl}-2-(trifluoromethyl)pyrimidin-4-yl]oxy}cyclohexyl)-3-[4-(7H-pyrrolo[2,3-d]pyrimidin-4-yl)-1H-pyrazol-1-yl]azetidin-3-yl}acetonitrile tris(trifluoroacetate) (salt)] | < 10 | ≧10
8 | N#CCC1(n2cc(-c3ncnc4[nH]ccc34)cn2)CN([C@H]2CC[C@@H](Oc3cc(CNCC(F)(F)F)nc(C(F)(F)F)n3)CC2)C1.O=C(O)C(F)(F)F.O=C(O)C(F)(F)F.O=C(O)C(F)(F)F [Example 14, [3-[4-(7H-pyrrolo[2,3-d]pyrimidin-4-yl)-1H-pyrazol-1-yl]-1-(cis-4-{[6-{[(2,2,2-trifluoroethyl)amino]methyl}-2-(trifluoromethyl)pyrimidin-4-yl]oxy}cyclohexyl)azetidin-3-yl]acetonitrile tris(trifluoroacetate)] | < 10 | ≧10
9 | N#CCC1(n2cc(-c3ncnc4[nH]ccc34)cn2)CN([C@H]2CC[C@@H](Oc3cc(CNCCF)nc(C(F)(F)F)n3)CC2)C1.O=C(O)C(F)(F)F.O=C(O)C(F)(F)F.O=C(O)C(F)(F)F [Example 15, {1-(cis-4-{[6-{[(2-fluoroethyl)amino]methyl}-2-(trifluoromethyl)pyrimidin-4-yl]oxy}cyclohexyl)-3-[4-(7H-pyrrolo[2,3-d]pyrimidin-4-yl)-1H-pyrazol-1-yl]azetidin-3-yl}acetonitrile tris(trifluoroacetate)] | < 10 | ≧10
10 | CC(C)(O)CNCc1cc(O[C@H]2CC[C@@H](N3CC(CC#N)(n4cc(-c5ncnc6[nH]ccc56)cn4)C3)CC2)nc(C(F)(F)F)n1 [Example 20, {1-(cis-4-{[6-{[(2-hydroxy-2-methylpropyl)amino]methyl}-2-(trifluoromethyl)pyrimidin-4-yl]oxy}cyclohexyl)-3-[4-(7H-pyrrolo[2,3-d]pyrimidin-4-yl)-1H-pyrazol-1-yl]azetidin-3-yl}acetonitrile tris(trifluoroacetate) (salt)] | < 10 | ≧10
11 | N#CCC1(n2cc(-c3ncnc4[nH]ccc34)cn2)CN([C@H]2CC[C@@H](Oc3cc(CNCCCO)nc(C(F)(F)F)n3)CC2)C1 [Example 21, {1-(cis-4-{[6-{[(3-hydroxypropyl)amino]methyl}-2-(trifluoromethyl)pyrimidin-4-yl]oxy}cyclohexyl)-3-[4-(7H-pyrrolo[2,3-d]pyrimidin-4-yl)-1H-pyrazol-1-yl]azetidin-3-yl}acetonitrile tris(trifluoroacetate) (salt)] | < 10 | ≧10

Results, then the compound that gave them:

Row | IC50 (human JAK1) [nM] | JAK2/JAK1 IC50 ratio (human JAK2) | Compound
12 | < 10 | ≧10 | CCNCc1cc(O[C@H]2CC[C@@H](N3CC(CC#N)(n4cc(-c5ncnc6[nH]ccc56)cn4)C3)CC2)nc(C(F)(F)F)n1 [Example 5, {1-(cis-4-{[6-[(Ethylamino)methyl]-2-(trifluoromethyl)pyrimidin-4-yl]oxy}cyclohexyl)-3-[4-(7H-pyrrolo[2,3-d]pyrimidin-4-yl)-1H-pyrazol-1-yl]azetidin-3-yl}acetonitrile tris(trifluoroacetate)]
13 | < 10 | ≧10 | N#CCC1(n2cc(-c3ncnc4[nH]ccc34)cn2)CN([C@H]2CC[C@@H](Oc3cc(CNCCO)nc(C(F)(F)F)n3)CC2)C1 [Example 11, {1-(cis-4-{[6-{[(2-hydroxyethyl)amino]methyl}-2-(trifluoromethyl)pyrimidin-4-yl]oxy}cyclohexyl)-3-[4-(7H-pyrrolo[2,3-d]pyrimidin-4-yl)-1H-pyrazol-1-yl]azetidin-3-yl}acetonitrile tris(trifluoroacetate) (salt)]
14 | < 10 | ≧10 | C[C@@H](CO)NCc1cc(O[C@H]2CC[C@@H](N3CC(CC#N)(n4cc(-c5ncnc6[nH]ccc56)cn4)C3)CC2)nc(C(F)(F)F)n1 [Example 16, {1-(cis-4-{[6-({[(1S)-2-hydroxy-1-methylethyl]amino}methyl)-2-(trifluoromethyl)pyrimidin-4-yl]oxy}cyclohexyl)-3-[4-(7H-pyrrolo[2,3-d]pyrimidin-4-yl)-1H-pyrazol-1-yl]azetidin-3-yl}acetonitrile Ex 1 tris(trifluoroacetate) (salt)]
15 | < 10 | ≧10 | C[C@H](CO)NCc1cc(O[C@H]2CC[C@@H](N3CC(CC#N)(n4cc(-c5ncnc6[nH]ccc56)cn4)C3)CC2)nc(C(F)(F)F)n1 [Example 17, {1-(cis-4-{[6-({[(1R)-2-hydroxy-1-methylethyl]amino}methyl)-2-(trifluoromethyl)pyrimidin-4-yl]oxy}cyclohexyl)-3-[4-(7H-pyrrolo[2,3-d]pyrimidin-4-yl)-1H-pyrazol-1-yl]azetidin-3-yl}acetonitrile tris(trifluoroacetate) (salt)]
16 | < 10 | ≧10 | C[C@@H](O)CNCc1cc(O[C@H]2CC[C@@H](N3CC(CC#N)(n4cc(-c5ncnc6[nH]ccc56)cn4)C3)CC2)nc(C(F)(F)F)n1 [Example 18, {1-(cis-4-{[6-({[(2S)-2-hydroxypropyl]amino}methyl)-2-(trifluoromethyl)pyrimidin-4-yl]oxy}cyclohexyl)-3-[4-(7H-pyrrolo[2,3-d]pyrimidin-4-yl)-1H-pyrazol-1-yl]azetidin-3-yl}acetonitrile tris(trifluoroacetate) (salt)]
17 | < 10 | ≧10 | C[C@H](O)CNCc1cc(O[C@H]2CC[C@@H](N3CC(CC#N)(n4cc(-c5ncnc6[nH]ccc56)cn4)C3)CC2)nc(C(F)(F)F)n1 [Example 19, {1-(cis-4-{[6-({[(2R)-2-hydroxypropyl]amino}methyl)-2-(trifluoromethyl)pyrimidin-4-yl]oxy}cyclohexyl)-3-[4-(7H-pyrrolo[2,3-d]pyrimidin-4-yl)-1H-pyrazol-1-yl]azetidin-3-yl}acetonitrile tris(trifluoroacetate) (salt)]

Source: US9359358B2, “Cyclohexyl azetidine derivatives as JAK inhibitors” (Incyte Holdings Corporation, priority 2011, dated 2016)
